Values quoted from earlier work, collected in US8333997B2, “Compositions for sustained release of nitric oxide, methods of preparing same and uses thereof” (priority 2006, dated 2012).

Legend:
[1] = tested on: Methicillin sensitive and Methicillin resistant species; conditions: against Methicillin sensitive and Methicillin resistant species
[2] = tested on: S. aureus; conditions: dose-response study on S. aureus

SMILES | efficacious concentration ranges [1] [mg/L] | concentration at which NO exhibits potent antimicrobial properties [2]
C/C(=C\C(=O)OCCCCCCCCC(=O)O)C[C@@H]1OC[C@H](C[C@@H]2O[C@H]2[C@@H](C)[C@H](C)O)[C@@H](O)[C@H]1O [Mupirocin] | 25 to 256 | 
[N]=O [NO, nitric oxide] |  | above 160 ppm
